This is an account of results in ChEMBL document CHEMBL1201862, “PubChem BioAssay data set” (2004).

Activity calls are given as the source filed them.

A short description of assay [1]: Vero cell cytotoxicity, dose response, cytotoxicity control for Vif-APOBEC3G degradation inhibitor project, Vero cells (AID 1117358). The class given is functional. To be noted: Human immunodeficiency virus 1, Vero.
The nature of assay [2]: Luminescence-based cell-based high throughput dose response assay to identify activators of the DAF-12 from the parasite S. stercoralis (ssDAF-12). The class given is functional.
Assay [3] has as its target T1, Oxysterols receptor LXR-beta (Homo sapiens, UniProt P55055).
T1 sequence (P55055 whole entry): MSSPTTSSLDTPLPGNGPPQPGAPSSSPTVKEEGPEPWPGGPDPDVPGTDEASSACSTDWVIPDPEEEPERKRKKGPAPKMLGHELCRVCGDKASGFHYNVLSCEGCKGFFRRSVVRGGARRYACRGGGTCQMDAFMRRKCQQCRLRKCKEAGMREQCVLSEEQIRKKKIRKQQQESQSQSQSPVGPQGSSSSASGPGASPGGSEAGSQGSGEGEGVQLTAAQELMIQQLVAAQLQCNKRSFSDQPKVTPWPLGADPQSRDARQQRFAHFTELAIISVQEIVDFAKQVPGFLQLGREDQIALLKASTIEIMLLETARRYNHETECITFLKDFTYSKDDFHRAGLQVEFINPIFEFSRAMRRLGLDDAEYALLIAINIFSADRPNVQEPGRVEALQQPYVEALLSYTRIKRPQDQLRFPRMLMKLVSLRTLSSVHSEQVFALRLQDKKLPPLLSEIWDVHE
Nature of the assay: LXR agonists, Gal4 luciferase reporter, dose response, counter-screen for ssDAF-12 agonist project, cell-based, luminescence, HEK293, S. stercoralis campaign (AID 720737). Type of assay: functional. To be noted: read-out: IC50 (the source's name). (In a reporter assay the amount or activity of a reporter protein is the signal.)

The target in assay [4] is T1, Oxysterols receptor LXR-beta. The class given is functional, cell-based.
The target in the next assay is Cytochrome P450 2D6 (Homo sapiens, UniProt P10635).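 Also: CYP2D6 member of a cytochrome P450 panel assay.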
A further assay has as its target Cytochrome P450 3A4 (Homo sapiens, UniProt P08684).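 Also: CYP3A4 tested as one member of a cytochrome P450 panel screen.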
Assay [5] in a line: cells.
A short description of assay [6]: Luminescence Cell-Based Dose Retest to Confirm Inhibitors of Cancer Stem Cells. [Related pubchem assays (depositor defined):AID2717, AID2721]. Type of assay: functional. To be noted: Homo sapiens.
In assay [7] the target is Heat shock protein HSP 90-alpha (Homo sapiens, UniProt P07900). The class given is functional, organism-based.
Assay [8] can be described thus: HepG2 cell cytotoxicity, dose response, cytotoxicity control, ATP luminescence, cherry-pick, set 6 (AID 1053125). Type of assay: functional, cell-based.
Assay [9] is described as follows: cells. To be noted: A549.
A short description of assay [10]: cells. To be noted: HEK293.
The target of assay [11] is Signal transducer and activator of transcription 1-alpha/beta (Homo sapiens, UniProt P42224). Nature of the assay: STAT1 signalling inhibitors, dose response, cell-based, NIH 3T3, luciferase reporter (AID 1396). Type of assay: functional.
Assay [12] deals with T2, RNA-binding protein pos-1 (Caenorhabditis elegans, UniProt G5EF15).
T2 sequence (G5EF15 whole entry): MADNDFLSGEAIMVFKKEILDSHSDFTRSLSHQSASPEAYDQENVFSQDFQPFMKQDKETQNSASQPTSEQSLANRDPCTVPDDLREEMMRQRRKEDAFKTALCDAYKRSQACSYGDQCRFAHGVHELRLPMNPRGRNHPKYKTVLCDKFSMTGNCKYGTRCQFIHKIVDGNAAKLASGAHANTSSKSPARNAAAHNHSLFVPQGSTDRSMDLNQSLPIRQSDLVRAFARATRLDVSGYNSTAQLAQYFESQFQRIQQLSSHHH
Nature of the assay: inhibitors of POS-1/mex-3 RNA binding, dose response, biochemical, fluorescence polarization (AID 1964).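 Also: purified POS-1 fused to maltose binding protein made in E. coli; potency of compounds blocking POS-1 binding to fluorescent RNA.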

Assay [13] in a line: Luminescence Cell-Based Dose Confirmation HTS to Identify Activators of 5'UTR Stem-Loop Driven Alpha-Synuclein mRNA Translation in H4 Neuroglioblastoma Cells. [Related pubchem assays: 1829 (Project Summary), 1814 (Primary HTS)]. Type of assay: functional.
Assay [14] can be described thus: Luminescence Cell-Based Dose Response HTS to Identify Activators of Luciferase Translation or Activity in H4 […] Cells. [Related pubchem assays: 1829 (Project Summary), 1814 (Primary HTS)]. Type of assay: functional.
The subject of the next assay is H4. Nature of the assay: Luminescence Cell-Based Dose Response HTS to Identify Activators of 5'UTR Stem-Loop Driven Prion Protein mRNA Translation in H4 Neuroglioblastoma Cells. [Related pubchem assays: 1829 (Project Summary), 1814 (Primary HTS)]. Type of assay: functional. The note with it: Homo sapiens.
In assay [15] the target is T3, Zinc finger protein mex-5 (Caenorhabditis elegans, UniProt Q9XUB2).
T3 sequence (Q9XUB2 whole entry): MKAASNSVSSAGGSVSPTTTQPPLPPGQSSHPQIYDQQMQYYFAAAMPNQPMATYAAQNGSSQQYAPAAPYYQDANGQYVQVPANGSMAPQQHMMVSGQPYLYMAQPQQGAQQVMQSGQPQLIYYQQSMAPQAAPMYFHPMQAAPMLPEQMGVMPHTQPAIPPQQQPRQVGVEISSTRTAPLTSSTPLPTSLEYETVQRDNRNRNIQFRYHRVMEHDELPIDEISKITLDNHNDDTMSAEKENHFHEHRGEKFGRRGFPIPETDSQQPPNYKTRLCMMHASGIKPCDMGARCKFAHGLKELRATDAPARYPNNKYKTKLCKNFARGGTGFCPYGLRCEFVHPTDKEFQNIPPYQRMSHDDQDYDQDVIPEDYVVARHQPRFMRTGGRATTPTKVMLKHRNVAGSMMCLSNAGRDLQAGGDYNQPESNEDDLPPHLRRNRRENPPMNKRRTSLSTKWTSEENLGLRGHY
The assay can be described thus: MEX-5/TCR-2 RNA interaction inhibitors, dose response, biochemical, C. elegans, fluorescence polarization (AID 1960).

For another assay, the target named is Transthyretin (Homo sapiens, UniProt P02766). The assay can be described thus: Luminescence-based cell-based high throughput dose response assay to identify activators of Transthyretin (TTR) transcription. Type of assay: functional.
The target of assay [16] is T4, Carboxy-terminal domain RNA polymerase II polypeptide A small phosphatase 1 (Homo sapiens, UniProt Q9GZU7).
T4 sequence (Q9GZU7 whole entry): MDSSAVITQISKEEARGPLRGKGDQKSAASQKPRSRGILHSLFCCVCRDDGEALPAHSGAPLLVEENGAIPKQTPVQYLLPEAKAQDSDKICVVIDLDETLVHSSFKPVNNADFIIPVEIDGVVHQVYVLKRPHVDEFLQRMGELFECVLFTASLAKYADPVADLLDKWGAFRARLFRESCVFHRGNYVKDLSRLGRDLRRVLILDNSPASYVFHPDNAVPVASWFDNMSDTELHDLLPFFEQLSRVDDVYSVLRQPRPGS
The assay can be described thus: inhibitors of CTDSP1, concentration-response testing, biochemical assay, absorbance-based, actives from ultra-high-throughput screening (AID 540297). Type of assay: functional.

Another assay deals with T5, Caspase-6 (Homo sapiens, UniProt P55212).
T5 sequence (P55212 whole entry): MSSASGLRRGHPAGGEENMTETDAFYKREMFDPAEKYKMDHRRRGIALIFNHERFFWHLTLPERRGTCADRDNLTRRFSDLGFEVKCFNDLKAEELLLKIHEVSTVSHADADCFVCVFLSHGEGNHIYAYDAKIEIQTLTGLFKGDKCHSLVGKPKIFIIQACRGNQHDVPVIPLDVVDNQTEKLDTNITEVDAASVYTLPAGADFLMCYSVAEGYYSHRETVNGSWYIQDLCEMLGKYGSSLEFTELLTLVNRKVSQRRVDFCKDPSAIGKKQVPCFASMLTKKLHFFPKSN
The assay can be described thus: human caspase-6 inhibitors, dose response, biochemical, VEID-R110 fluorescence, cherry-pick (AID 720632).

For assay [17], the target named is RNA-editing ligase 1, mitochondrial (Trypanosoma brucei brucei, UniProt P86926). Nature of the assay: TbREL1 ligase inhibitors, dose response, biochemical, fluorescence, Trypanosoma brucei (AID 1117295). The class given is functional.
RNA-editing ligase 1, mitochondrial, sequence (P86926 whole entry): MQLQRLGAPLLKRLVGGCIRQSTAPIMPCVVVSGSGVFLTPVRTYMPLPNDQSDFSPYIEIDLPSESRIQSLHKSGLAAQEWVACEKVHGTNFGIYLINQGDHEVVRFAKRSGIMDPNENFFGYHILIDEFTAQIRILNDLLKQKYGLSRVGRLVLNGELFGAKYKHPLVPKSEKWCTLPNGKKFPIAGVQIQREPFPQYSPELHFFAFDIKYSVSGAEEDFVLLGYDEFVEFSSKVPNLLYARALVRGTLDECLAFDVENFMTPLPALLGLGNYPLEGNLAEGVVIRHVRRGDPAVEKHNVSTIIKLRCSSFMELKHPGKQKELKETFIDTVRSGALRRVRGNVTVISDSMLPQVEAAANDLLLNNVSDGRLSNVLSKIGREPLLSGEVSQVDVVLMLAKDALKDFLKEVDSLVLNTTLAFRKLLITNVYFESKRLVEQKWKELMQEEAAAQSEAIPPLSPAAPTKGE

Cytochrome P450 3A4, sequence (P08684 whole entry): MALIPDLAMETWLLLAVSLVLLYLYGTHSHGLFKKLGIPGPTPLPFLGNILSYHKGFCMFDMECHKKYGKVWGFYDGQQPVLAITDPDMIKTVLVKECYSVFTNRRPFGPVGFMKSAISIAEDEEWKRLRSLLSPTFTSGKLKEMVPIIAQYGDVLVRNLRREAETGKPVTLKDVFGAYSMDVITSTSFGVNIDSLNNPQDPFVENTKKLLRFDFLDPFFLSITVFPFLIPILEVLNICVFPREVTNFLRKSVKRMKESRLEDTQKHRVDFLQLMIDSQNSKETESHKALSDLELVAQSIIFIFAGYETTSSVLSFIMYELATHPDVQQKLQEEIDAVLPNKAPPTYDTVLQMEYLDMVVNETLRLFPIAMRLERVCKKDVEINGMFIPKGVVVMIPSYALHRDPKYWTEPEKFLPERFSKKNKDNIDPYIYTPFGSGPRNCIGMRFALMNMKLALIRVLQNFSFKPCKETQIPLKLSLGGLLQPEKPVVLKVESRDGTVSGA
Cytochrome P450 2D6, sequence (P10635 whole entry): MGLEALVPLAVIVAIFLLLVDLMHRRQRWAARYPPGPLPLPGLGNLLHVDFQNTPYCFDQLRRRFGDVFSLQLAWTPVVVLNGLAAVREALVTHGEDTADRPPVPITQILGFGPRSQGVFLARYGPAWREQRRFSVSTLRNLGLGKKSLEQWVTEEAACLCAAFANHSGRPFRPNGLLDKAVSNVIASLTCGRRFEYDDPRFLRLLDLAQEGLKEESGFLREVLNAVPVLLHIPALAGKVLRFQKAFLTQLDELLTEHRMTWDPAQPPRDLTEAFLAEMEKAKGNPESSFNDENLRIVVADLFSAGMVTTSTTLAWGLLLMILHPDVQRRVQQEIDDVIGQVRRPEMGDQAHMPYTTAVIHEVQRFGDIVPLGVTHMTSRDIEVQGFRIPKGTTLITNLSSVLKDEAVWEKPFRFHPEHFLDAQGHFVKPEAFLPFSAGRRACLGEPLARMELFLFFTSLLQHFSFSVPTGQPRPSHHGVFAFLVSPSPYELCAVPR
Signal transducer and activator of transcription 1-alpha/beta, sequence (P42224 whole entry): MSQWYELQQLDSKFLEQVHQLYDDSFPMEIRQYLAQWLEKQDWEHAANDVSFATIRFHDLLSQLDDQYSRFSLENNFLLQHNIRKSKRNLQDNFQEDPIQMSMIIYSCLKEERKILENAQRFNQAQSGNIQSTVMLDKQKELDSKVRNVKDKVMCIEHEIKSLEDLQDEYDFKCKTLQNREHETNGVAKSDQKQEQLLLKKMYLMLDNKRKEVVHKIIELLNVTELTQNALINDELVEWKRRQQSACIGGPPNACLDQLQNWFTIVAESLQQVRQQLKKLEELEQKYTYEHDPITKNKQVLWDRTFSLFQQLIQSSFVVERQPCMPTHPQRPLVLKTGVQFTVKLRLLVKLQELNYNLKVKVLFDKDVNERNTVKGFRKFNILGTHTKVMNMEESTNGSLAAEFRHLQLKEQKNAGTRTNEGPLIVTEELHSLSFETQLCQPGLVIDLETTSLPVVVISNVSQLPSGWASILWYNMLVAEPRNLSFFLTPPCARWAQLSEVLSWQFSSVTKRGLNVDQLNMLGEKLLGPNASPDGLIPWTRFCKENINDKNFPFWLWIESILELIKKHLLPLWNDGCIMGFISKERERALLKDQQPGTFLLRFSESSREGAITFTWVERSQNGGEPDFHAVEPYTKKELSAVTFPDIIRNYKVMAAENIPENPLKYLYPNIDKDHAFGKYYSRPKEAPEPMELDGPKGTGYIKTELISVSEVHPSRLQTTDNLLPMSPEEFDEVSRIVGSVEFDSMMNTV

For orientation: CC50 means the concentration giving 50% cytotoxicity. For the molecule `Cc1onc(-c2ccccc2Cl)c1C(=O)N1CCN(c2cccc(Cl)c2)CC1`, in assay [1], the CC50 is > 40 µM (active).
The term IC50 denotes the concentration that inhibits the measured activity by half. The AC50 is the concentration at which the activity in the assay is half-maximal. For the molecule `Cc1ccccc1-c1cc(-c2ccccc2O)on1`, in assay [2], the IC50 was > 67.6 µM (inactive). In addition, the EC50 (in assay [3]; in assay [4]; in the assay “cells [5]”) was > 67.6 µM (inactive) in each case. Further, the AC50 on Cytochrome P450 2D6 was 22.4 µM (inconclusive); on Cytochrome P450 3A4, 31.6 µM (inconclusive).
For the molecule `CCCCCCc1cc2cc(S(=O)(=O)c3ccc(Cl)cc3)c(=O)oc2cc1O`, the AC50 in assay [6] was 0.797 µM (active); in assay [7], 0.476 µM (active); in [8] it was 41.4 µM (active); in the assay “cells [9]”, 35.6 µM (active); in the assay “cells [10]”, > 52 µM (inactive).
As to `O=C(c1ccco1)N1CCN(c2[nH]cnc3c4ccccc4nc2-3)CC1`, the IC50 in [11] is given as 16.9 µM (not active).
`O=C/C(=C\Nc1ccccn1)c1nc2ccccc2o1`: the EC50 was > 300 µM (not active) in [12]; > 120 µM (not active) in assay [13]; 10.2 µM (active) in [14]; 32.7 µM (active) in the assay on H4; > 300 µM (not active) in assay [15]; > 167 µM (inactive) on Transthyretin.
For the molecule `O=C(N/N=C/c1ccc(OC(=O)c2ccccc2Cl)cc1)c1cc(O)cc(O)c1`, the IC50 in [16] was 1.4 µM (active); in [17], 41 µM (inactive). Further, the AC50 at Caspase-6 is 1.11 µM (active).
